Legend:
Assay type in all cases: cell-based
D3R = molecular target: T1, D3R (Homo sapiens, UniProt P35462); assay: Gz activation by D3R, Rap1GAP (SSS-AAA)-RlucII translocation to PM (BRET)
T1 construct: expressed in transfected cells; host or cells: HEK293
Protocol: (§1) Cells were then directly seeded in 96-well plates pre-treated or not with poly-L-ornithine hydrobromide at a density of 35 000 cells per well. All experiments read in the Spark 10M reader were performed using non-treated plates.
(§2) BRET measurements 48-hours post transfection, cells were washed twice with pre-warmed Tyrode's buffer (140 mM NaCl, 2.7 mM KCl, 1 mM CaCl2, 12 mM NaHCO3, 5.6 mM D-glucose, 0.5 mM MgCl2, 0.37 mM NaH2PO4, 25 mM HEPES, pH 7.4) before being stimulated with various concentrations of ligands at either room temperature (RT) or 37° C., as indicated. The cell-permeable substrate, coelenterazine Purple I was added at a final concentration of 1 μM in Tyrode's buffer for at least 6 min (at 37° C.) to 10min (at RT) before BRET measurements.
(§3) Data Analysis. Estimation of the EC50 values were calculated using the GraphPad® Prism curve fitting program. The curves presented throughout this study, representing the best fits, and were also generated using this GraphPad® Prism program.

[1] = molecular target: T2, Dopamine D4 receptor (D4R) (Homo sapiens, UniProt P21917); conditions: HEK293, Rap1GAP (SSS-AAA)-RlucII, rGFP-CAAX, Gz, read-out: EC50, Gz activation
T2 construct: signal peptide […]; host or cells: HEK293
T2 sequence (P21917 1-419): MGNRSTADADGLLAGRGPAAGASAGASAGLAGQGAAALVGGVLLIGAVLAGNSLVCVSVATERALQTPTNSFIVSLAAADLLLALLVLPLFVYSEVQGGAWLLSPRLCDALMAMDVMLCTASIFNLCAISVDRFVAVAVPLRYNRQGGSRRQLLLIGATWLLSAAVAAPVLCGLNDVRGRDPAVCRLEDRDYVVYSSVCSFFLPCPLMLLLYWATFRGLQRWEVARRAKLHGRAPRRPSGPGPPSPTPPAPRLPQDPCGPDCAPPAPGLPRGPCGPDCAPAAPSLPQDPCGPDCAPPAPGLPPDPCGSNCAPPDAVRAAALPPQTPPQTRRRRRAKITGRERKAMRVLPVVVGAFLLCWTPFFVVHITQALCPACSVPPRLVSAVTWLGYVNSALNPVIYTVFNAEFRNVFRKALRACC
Protocol: as §1, §2, §3

[2] = molecular target: T3, thromboxane receptor (TPαR) (Homo sapiens, UniProt P21731); assay: TPαR-mediated G11 activation at the PM, P63RG-RlucII BRET
T3 construct: host or cells: HEK293
T3 sequence (P21731 1-343): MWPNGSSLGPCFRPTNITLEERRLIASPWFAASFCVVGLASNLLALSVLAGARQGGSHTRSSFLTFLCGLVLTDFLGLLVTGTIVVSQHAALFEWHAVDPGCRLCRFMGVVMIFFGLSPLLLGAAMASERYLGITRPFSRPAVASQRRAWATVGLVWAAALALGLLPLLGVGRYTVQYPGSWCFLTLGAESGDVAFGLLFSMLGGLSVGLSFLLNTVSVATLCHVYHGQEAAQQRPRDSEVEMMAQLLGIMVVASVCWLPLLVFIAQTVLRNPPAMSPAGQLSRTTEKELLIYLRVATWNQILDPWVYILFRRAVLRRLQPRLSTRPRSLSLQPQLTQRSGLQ
Source text: (§4) FIGS. 6J-6M show DRCs of TPαR ligands on Gq (FIG. 6J), G11 (FIG. 6K), G14 (FIG. 6L) and G15 (FIG. 6M) activation at the PM using P63RG-Rlucll under the optimal conditions determined in FIGS. 6B-6E. HEK293 cells cotransfected with thromboxane receptor (TPαR), P63RG-Rlucll, rGFP-CAAX were stimulated with U46619, I-BOP, CTA2, U51605, I-SAP and SQ 29,558. Results were normalized and presented as % of I-BOP response (between n=3 and n=5) +/−SEM.
(§5) Transfection using Poly(ethylenimine) (PEI): Two days before the experiments, HEK293 cells were washed with PBS containing no calcium or magnesium, detached and transfected with the indicated plasmids using PEI as a transfecting agent (at a ratio of 3 to 1, PEI/DNA). Cells were then directly seeded in 96-well plates pre-treated or not with poly-L-ornithine hydrobromide at a density of 35 000 cells per well. All experiments read in the Spark 10M reader were performed using non-treated plates.
(§6) BRET measurements 48-hours post transfection, cells were washed twice with pre-warmed Tyrode's buffer (140 mM NaCl, 2.7 mM KCl, 1 mM CaCl2, 12 mM NaHCO3, 5.6 mM D-glucose, 0.5 mM MgCl2, 0.37 mM NaH2PO4, 25 mM HEPES, pH 7.4) before being stimulated with various concentrations of ligands at either room temperature (RT) or 37° C., as indicated. The cell-permeable substrate, coelenterazine Purple I was added at a final concentration of 1 μM in Tyrode's buffer for at least 6 min (at 37° C.) to 10min (at RT) before BRET measurements. Measurements were either taken on a Spark 10M reader (Tecan Life Sciences; donor: 360 nm/380 nm & acceptor: 505 nm/570 nm), a LB 941 multimode plate reader (Berthold Technologies; donor: 400/470-nm and acceptor: 515/520-nm filters) or a Synergy Neo (Biotek: (donor: 400/480 nm, acceptor: 515/530 nm). The BRET signal was determined by calculating the ratio of the light intensity emitted by the rGFP (acceptor) over the light intensity emitted by the Rlucll (donor). All the BRET measurements were performed at 37° C. in the Tristar reader (FIGS. 1-2M & FIGS. 2R-7F), at RT in a Spark 10M reader (FIGS. 2N-2Q & FIGS. 8B-8S) or at RT in a Synergy Neo (FIGS. 8T-8X).

[3] = molecular target: T3, thromboxane receptor (TPαR); assay: TPαR-mediated G14 activation at the PM, P63RG-RlucII BRET
Source text: as §4, §5, §6

[4] = molecular target: T3, thromboxane receptor (TPαR); assay: TPαR-mediated G13 activation at the PM, PDZRG-RlucII BRET
Source text: (§7) FIGS. 4D and 4E show DRCs of TPαR ligands on G12 (FIG. 4D) and 13 (FIG. 4E) activation at the PM using PDZRG-Rlucll. HEK293 cells cotransfected with thromboxane receptor (TPαR), PDZRG-Rlucll, rGFP-CAAX were stimulated with known full agonists (U46619, I-BOP, CTA2), with a partial agonist (U51605) and the antagonists I-SAP and SQ 29,558. Results were normalized and presented as % of I-BOP response (n=4) +/−SEM.
as §5, §6

[5] = molecular target: T3, thromboxane receptor (TPαR); assay: TPαR-mediated G15 activation at the PM, P63RG-RlucII BRET
Source text: as §4, §5, §6

[6] = molecular target: T3, thromboxane receptor (TPαR); assay: TPαR-mediated G12 activation at the PM, P115RG-RlucII BRET
Source text: (§8) FIGS. 5B and 5C show DRCs of TPαR ligands on G12 (FIG. 5B) and G13 (FIG. 5C) activation at the PM using P115RG-Rlucll. HEK293 cells cotransfected with thromboxane receptor (TPαR), P115RG-Rlucll, rGFP-CAAX were stimulated with U46619, I-BOP, CTA2, U51605, I-SAP and SQ 29,558. Results were normalized and presented as % of I-BOP response (n=4) +/−SEM.
as §5, §6

[7] = molecular target: T3, thromboxane receptor (TPαR); assay: TPαR-mediated Gq activation at the PM, P63RG-RlucII BRET
Source text: as §4, §5, §6

[8] = molecular target: T3, thromboxane receptor (TPαR); assay: TPαR-mediated G13 activation at the PM, P115RG-RlucII BRET
Source text: as §8, §5, §6

[9] = molecular target: T3, thromboxane receptor (TPαR); assay: TPαR-mediated G12 activation at the PM, PDZRG-RlucII BRET
Source text: as §7, §5, §6

D1R = molecular target: T4, D1R (Homo sapiens, UniProt P21728); assay: Gz activation by D1R, Rap1GAP (SSS-AAA)-RlucII translocation to PM (BRET)
T4 construct: expressed in transfected cells; host or cells: HEK293
Protocol: as §1, §2, §3

D5R = molecular target: T5, D5R (Homo sapiens, UniProt P21918); assay: Gz activation by D5R, Rap1GAP (SSS-AAA)-RlucII translocation to PM (BRET)
T5 construct: expressed in transfected cells; host or cells: HEK293
Protocol: as §1, §2, §3

D2R = molecular target: T6, D2R (Homo sapiens, UniProt P14416); assay: Gz activation by D2R, Rap1GAP (SSS-AAA)-RlucII translocation to PM (BRET)
T6 construct: expressed in transfected cells; host or cells: HEK293
Protocol: as §1, §2, §3

T4 sequence (P21728 whole entry): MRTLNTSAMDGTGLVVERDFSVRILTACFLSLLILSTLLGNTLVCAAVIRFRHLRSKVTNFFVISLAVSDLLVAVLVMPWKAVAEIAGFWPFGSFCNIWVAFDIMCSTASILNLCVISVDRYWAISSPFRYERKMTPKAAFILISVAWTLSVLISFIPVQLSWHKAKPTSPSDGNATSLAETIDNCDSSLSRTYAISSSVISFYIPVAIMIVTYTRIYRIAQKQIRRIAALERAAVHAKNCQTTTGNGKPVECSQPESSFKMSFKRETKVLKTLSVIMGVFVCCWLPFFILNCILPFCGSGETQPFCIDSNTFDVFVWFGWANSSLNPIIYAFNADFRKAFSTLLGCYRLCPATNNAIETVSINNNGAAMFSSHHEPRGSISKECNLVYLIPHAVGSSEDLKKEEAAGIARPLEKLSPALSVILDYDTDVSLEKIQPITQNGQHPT
T1 sequence (P35462 whole entry): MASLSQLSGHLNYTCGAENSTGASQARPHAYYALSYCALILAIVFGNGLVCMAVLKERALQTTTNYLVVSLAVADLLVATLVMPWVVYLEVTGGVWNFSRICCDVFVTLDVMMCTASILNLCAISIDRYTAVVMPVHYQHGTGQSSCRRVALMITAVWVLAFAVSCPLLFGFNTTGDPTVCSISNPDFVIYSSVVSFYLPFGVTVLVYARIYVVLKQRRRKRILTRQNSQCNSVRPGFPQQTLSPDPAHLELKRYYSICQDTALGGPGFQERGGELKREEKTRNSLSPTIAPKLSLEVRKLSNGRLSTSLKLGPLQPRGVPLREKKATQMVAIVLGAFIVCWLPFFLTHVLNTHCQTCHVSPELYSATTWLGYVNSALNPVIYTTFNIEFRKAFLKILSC
T5 sequence (P21918 whole entry): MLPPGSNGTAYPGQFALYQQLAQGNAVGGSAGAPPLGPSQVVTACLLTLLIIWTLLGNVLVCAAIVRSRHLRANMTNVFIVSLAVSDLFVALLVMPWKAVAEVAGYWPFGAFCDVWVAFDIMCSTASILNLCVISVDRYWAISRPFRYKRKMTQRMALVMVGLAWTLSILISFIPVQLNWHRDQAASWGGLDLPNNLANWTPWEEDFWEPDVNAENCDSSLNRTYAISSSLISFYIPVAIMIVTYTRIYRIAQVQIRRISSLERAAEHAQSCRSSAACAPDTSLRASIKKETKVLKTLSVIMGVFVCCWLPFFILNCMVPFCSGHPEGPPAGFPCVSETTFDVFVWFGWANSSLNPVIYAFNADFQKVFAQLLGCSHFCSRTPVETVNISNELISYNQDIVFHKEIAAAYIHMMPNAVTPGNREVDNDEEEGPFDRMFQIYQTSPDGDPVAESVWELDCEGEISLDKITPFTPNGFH
T6 sequence (P14416 whole entry): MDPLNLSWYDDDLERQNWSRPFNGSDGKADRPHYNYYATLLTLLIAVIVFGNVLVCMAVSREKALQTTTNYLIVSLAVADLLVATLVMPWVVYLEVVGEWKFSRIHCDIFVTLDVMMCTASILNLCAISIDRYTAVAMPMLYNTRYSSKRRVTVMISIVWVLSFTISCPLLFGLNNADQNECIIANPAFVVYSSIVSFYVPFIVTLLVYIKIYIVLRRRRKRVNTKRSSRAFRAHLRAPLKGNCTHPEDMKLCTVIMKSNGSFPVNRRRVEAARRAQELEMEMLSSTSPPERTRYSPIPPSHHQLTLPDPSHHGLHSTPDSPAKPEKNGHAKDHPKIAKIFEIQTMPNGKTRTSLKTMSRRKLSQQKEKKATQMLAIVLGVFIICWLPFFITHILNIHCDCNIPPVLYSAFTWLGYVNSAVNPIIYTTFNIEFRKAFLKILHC

Row | SMILES | G11 activation, agonist character in words [2] | G14 activation, agonist character in words [3] | G13 activation, agonist character in words [4] | G15 activation, agonist character in words [5] | G12 activation, agonist character in words [6] | Gq activation, agonist character in words [7] | G13 activation, agonist character in words [8] | G12 activation, agonist character in words [9] | G13 activation, efficacy ([4]; normalized to I-BOP response) | Gq activation, efficacy ([7]; rGFP-CAAX) | G13 activation, efficacy ([8]; normalized to I-BOP response) | agonist properties (Gz activation), in words (D2R) | agonist properties (Gz activation), in words (D3R) | EC50 (D3R; HEK293, Rap1GAP (SSS-AAA)-RlucII, rGFP-CAAX, Gz) [nM] | EC50 [1] [nM] | agonist properties (Gz activation), in words (D1R) | agonist properties (Gz activation), in words (D5R)
1 | Cc1cccc(NC(=O)CN2CCC(c3ccccn3)CC2)c1 [A412,997] |  |  |  |  |  |  |  |  |  |  |  |  |  | 281 | 0.04 |  | 
2 | CCCCC[C@H](O)/C=C/[C@H]1CC2CC(C2)[C@@H]1C/C=C\CCCC(=O)O [CTA2] | full agonists | full agonists | full agonists | full agonists | full agonists | full agonists | full agonists | full agonists |  |  |  |  |  |  |  |  | 
3 | CC1(C)[C@@H]2C[C@H](NS(=O)(=O)c3ccc(I)cc3)[C@@H](C/C=C\CCCC(=O)O)[C@H]1C2 [I-SAP] | fail to induce significant activation | fail to induce significant activation |  | fail to induce significant activation | neutral | fail to induce significant activation |  | fails to induce significant G12 activation | 53 % of Max | 7 % of I-BOP max response | 19 % of Max |  |  |  |  |  | 
4 | Cc1c(C2CCN(CCc3ccccc3)CC2)noc1-c1ccc(Cl)cc1 [L741,742] |  |  |  |  |  |  |  |  |  |  |  |  |  |  |  | did not show agonist nor inverse properties | did not show agonist nor inverse properties
5 | CCCCC[C@H](O)/C=C/[C@@H]1[C@@H](C/C=C\CCCC(=O)O)[C@H]2CO[C@@H]1C2 [U46619] | full agonists | full agonists | full agonists | full agonists | full agonists | full agonists | full agonists | full agonists |  |  |  |  |  |  |  |  | 

Second part, led by results:

Row | G11 activation, agonist character in words [2] | G14 activation, agonist character in words [3] | G13 activation, agonist character in words [4] | G15 activation, agonist character in words [5] | G12 activation, agonist character in words [6] | Gq activation, agonist character in words [7] | G13 activation, agonist character in words [8] | G12 activation, agonist character in words [9] | G13 activation, efficacy ([4]; normalized to I-BOP response) | Gq activation, efficacy ([7]; rGFP-CAAX) | G13 activation, efficacy ([8]; normalized to I-BOP response) | agonist properties (Gz activation), in words (D2R) | agonist properties (Gz activation), in words (D3R) | SMILES | EC50 (D3R; HEK293, Rap1GAP (SSS-AAA)-RlucII, rGFP-CAAX, Gz) [nM] | EC50 [1] [nM] | agonist properties (Gz activation), in words (D1R) | agonist properties (Gz activation), in words (D5R)
6 | full agonists | full agonists | full agonists | full agonists | full agonists | full agonists | full agonists | full agonists |  |  |  |  |  | O=C(O)CCC/C=C\C[C@@H]1[C@@H](/C=C/[C@@H](O)COc2ccc(I)cc2)[C@H]2CC[C@@H]1O2 [I-BOP] |  |  |  | 
7 | fail to induce significant activation | fail to induce significant activation | not acting as a TPαR agonist | fail to induce significant activation | not acting as a TPαR agonist | fail to induce significant activation | not acting as a TPαR agonist | not acting as a TPαR agonist |  |  |  |  |  | O=C(O)CCC/C=C\C[C@@H]1[C@H](CNNC(=O)Nc2ccccc2)[C@H]2CC[C@@H]1O2 [SQ 29,558] |  |  |  | 
8 |  |  |  |  |  |  |  |  |  |  |  | only showed agonist properties on D4R | only showed agonist properties on D4R | COc1ccccc1N1CCN(CCN(C(=O)C2CCCCC2)c2ccccn2)CC1 [WAY-100635] |  |  | only showed agonist properties on D4R | only showed agonist properties on D4R

Reference: patent US20200256869A1, “SYSTEMS AND METHODS FOR THE ASSESSMENT OF G-PROTEIN ACTIVATION” (UNIVERSITÉ DE MONTRÉAL, priority 2017, published 2020)
